Data: patent EP0620225B1, “Cephalosporin derivatives” (Basilea Pharmaceutica AG, priority 1993, dated 1994)
Converted amounts (≈) assume the structure as drawn.

Key:
Assay in all cases: Antibacterial spectrum (MIC), agar dilution
Assay type in all cases: cell-based
Acinetobacter sp.51-156 = conditions: SP.51156, read-out: MIC
Procedure: (§1) In vitro activity was determined by minimum inhibitory concentration in a microorganism spectum by the agar dilution method in Mueller Hinton agar.

C.freundii 43 = conditions: Citrobacter freundii, read-out: MIC
Procedure: as §1

C.freundii 902 = conditions: Citrobacter freundii, read-out: MIC
Procedure: as §1

E.cloacae 908R = conditions: Enterobacter cloacae, read-out: MIC
Procedure: as §1

E.cloacae 908SSi = conditions: Enterobacter cloacae, read-out: MIC
Procedure: as §1

E.coli 25922 = conditions: Escherichia coli, read-out: MIC
Procedure: as §1

E.faecalis 6 = conditions: Enterococcus faecalis, read-out: MIC
Procedure: as §1

H.influenzae 1 = conditions: Haemophilus influenzae, read-out: MIC
Procedure: as §1

K.pneumoniae 418 = conditions: Klebsiella pneumoniae, read-out: MIC
Procedure: as §1

L.monocytogenes BK23 = conditions: Listeria monocytogenes, read-out: MIC
Procedure: as §1

M.catarrhalis RA21 = conditions: Moraxella catarrhalis, read-out: MIC
Procedure: as §1

M.morganii 6H-137 = conditions: Morganella morganii, 6H137, read-out: MIC
Procedure: as §1

N.meningitidis 69480 = conditions: Neisseria meningitidis, read-out: MIC
Procedure: as §1

P.aeruginosa 27853 = conditions: Pseudomonas aeruginosa, read-out: MIC
Procedure: as §1

P.mirabilis 2117 = conditions: Proteus mirabilis, read-out: MIC
Procedure: as §1

P.vulgaris 1028 = conditions: Proteus vulgaris, read-out: MIC
Procedure: as §1

S.agalactiae QK44 = conditions: Streptococcus agalactiae, read-out: MIC
Procedure: as §1

S.aureus 6538 = conditions: Staphylococcus aureus, read-out: MIC
Procedure: as §1

S.aureus 734 MRSA = conditions: Staphylococcus aureus, read-out: MIC
Procedure: as §1

S.marcescens 69438 = conditions: Serratia marcescens, read-out: MIC
Procedure: as §1

S.pneumoniae Q19 = conditions: Streptococcus pneumoniae, read-out: MIC
Procedure: as §1

S.pyogenes B15 = conditions: Streptococcus pyogenes, read-out: MIC
Procedure: as §1

S.viridans group 016 = conditions: Streptococcus viridans, read-out: MIC
Procedure: as §1

X.maltophilia 1AC739 = conditions: Stenotrophomonas maltophilia, read-out: MIC
Procedure: as §1

SMILES | MIC (Acinetobacter sp.51-156) [mg/L] | MIC (C.freundii 43) [mg/L] | MIC (C.freundii 902) [mg/L] | MIC (E.cloacae 908R) [mg/L] | MIC (E.cloacae 908SSi) [mg/L] | MIC (E.coli 25922) [mg/L] | MIC (E.faecalis 6) [mg/L] | MIC (H.influenzae 1) [mg/L] | MIC (K.pneumoniae 418) [mg/L] | MIC (L.monocytogenes BK23) [mg/L] | MIC (M.catarrhalis RA21) [mg/L] | MIC (M.morganii 6H-137) [mg/L] | MIC (N.meningitidis 69480) [mg/L] | MIC (P.aeruginosa 27853) [mg/L] | MIC (P.mirabilis 2117) [mg/L] | MIC (P.vulgaris 1028) [mg/L] | MIC (S.agalactiae QK44) [mg/L] | MIC (S.aureus 6538) [mg/L] | MIC (S.aureus 734 MRSA) [mg/L] | MIC (S.marcescens 69438) [mg/L] | other results
Nc1nc(/C(=N/O)C(=O)N[C@@H]2C(=O)N3C(C(=O)O)=C(/C=C4\CCN(CC5CC5)C4=O)CS[C@H]23)cs1 [N, [6R-[3(E),6α,7β(Z)]]-7-[[(2-Amino-4-thiazolyl)(hydroxyimino)acetyl]-amino]-3-[[1-cyclopropylmethyl-2-oxo-3-pyrrolidinylidene]methyl]-8-oxo-5-thia-1-azabicyclo[4.2.0]oct-2-ene-2-carboxylic acid] | 16 (≈ 30.9 µM) | 4 (≈ 7.71 µM) | 0.12 (≈ 0.231 µM) | 8 (≈ 15.4 µM) | 1 (≈ 1.93 µM) | ≤ 0.06 | 1 (≈ 1.93 µM) | 0.25 (≈ 0.482 µM) | 0.12 (≈ 0.231 µM) | 4 (≈ 7.71 µM) | 8 (≈ 15.4 µM) | ≤ 0.06 | 0.25 (≈ 0.482 µM) | 16 (≈ 30.9 µM) | ≤ 0.06 | 0.25 (≈ 0.482 µM) | 0.5 (≈ 0.964 µM) | 0.5 (≈ 0.964 µM) | 8 (≈ 15.4 µM) | 0.5 (≈ 0.964 µM) | MIC (S.pneumoniae Q19): ≤ 0.06 mg/L; MIC (S.pyogenes B15): ≤ 0.06 mg/L; MIC (S.viridans group 016): 1 mg/L (≈ 1.93 µM); MIC (X.maltophilia 1AC739): > 32 mg/L
Nc1nc(/C(=N/O)C(=O)N[C@@H]2C(=O)N3C(C(=O)O)=C(/C=C4\CCN(c5cnccn5)C4=O)CS[C@H]23)cs1 [P] | 32 (≈ 59 µM) | 2 (≈ 3.69 µM) | 0.12 (≈ 0.221 µM) | 8 (≈ 14.7 µM) | 0.25 (≈ 0.461 µM) | ≤ 0.06 | 0.5 (≈ 0.922 µM) | 0.5 (≈ 0.922 µM) | 0.25 (≈ 0.461 µM) | 4 (≈ 7.37 µM) | 8 (≈ 14.7 µM) | ≤ 0.06 | 0.5 (≈ 0.922 µM) | 8 (≈ 14.7 µM) | 0.12 (≈ 0.221 µM) | 4 (≈ 7.37 µM) | 0.5 (≈ 0.922 µM) | 0.5 (≈ 0.922 µM) | 8 (≈ 14.7 µM) | 4 (≈ 7.37 µM) | MIC (S.pneumoniae Q19): 0.12 mg/L (≈ 0.221 µM); MIC (S.pyogenes B15): ≤ 0.06 mg/L; MIC (S.viridans group 016): 1 mg/L (≈ 1.84 µM); MIC (X.maltophilia 1AC739): > 32 mg/L
C#CCN1CC/C(=C\C2=C(C(=O)O)N3C(=O)[C@@H](NC(=O)/C(=N\O)c4csc(N)n4)[C@H]3SC2)C1=O [O, [6R-[3(E),6α,7β(Z)]]-7-[[(2-Amino-4-thiazolyl)(hydroxyimino)acetyl]-amino]-8-oxo-3-[[2-oxo-1-(2-propynyl)-3-pyrrolidinylidene]methyl]-5-thia-1-azabicyclo [4.2.0]-oct-2-ene-2-carboxylic acid] | 16 (≈ 31.8 µM) | 4 (≈ 7.96 µM) | 0.12 (≈ 0.239 µM) | 16 (≈ 31.8 µM) | 1 (≈ 1.99 µM) | ≤ 0.06 | 2 (≈ 3.98 µM) | 0.25 (≈ 0.497 µM) | 0.12 (≈ 0.239 µM) | 2 (≈ 3.98 µM) | 4 (≈ 7.96 µM) | ≤ 0.06 | 0.25 (≈ 0.497 µM) | 8 (≈ 15.9 µM) | ≤ 0.06 | 8 (≈ 15.9 µM) | 0.25 (≈ 0.497 µM) | 1 (≈ 1.99 µM) | 4 (≈ 7.96 µM) | 1 (≈ 1.99 µM) | MIC (S.pneumoniae Q19): ≤ 0.06 mg/L; MIC (S.pyogenes B15): ≤ 0.06 mg/L; MIC (S.viridans group 016): 0.5 mg/L (≈ 0.995 µM); MIC (X.maltophilia 1AC739): > 32 mg/L
